[invAb] = inverted abasic unit; d = 2'-deoxy (DNA); m = 2'-O-methyl; r = 2'-OH (RNA); f = 2'-fluoro
What was measured:
Bach1 mRNA [1] = test: Initial screen: Bach1 mRNA knock-down in human A549 cells (96-well transfection, quantitative RT-PCR); format: cell-based; details: Bach1 mRNA, 10 nM siNA, human A549 cells, n = 2, mean ± S.D., normalized to GAPDH and non-targeting control, 24 hrs post-transfection
Method: (§1) All cells were obtained from ATCC (Manassas, Va.) unless otherwise indicated. Cells were grown and transfected under standard conditions, which are detailed below for each cell line.
(§2) Cells were plated in all wells of a tissue-culture treated, 96-well plate at a final count of 5000 cells/well in 100 μL of the appropriate culture media. The cells were cultured for 24 hours after plating at 37° C. in the presence of 5% CO2.
(§3) After 24 hours, complexes containing siNA and RNAiMax were created as follows: A solution of RNAiMax diluted 33-fold in OPTI-MEM was prepared. […] After incubation of RNAiMax/OPTI-MEM solution at room temperature for 5 min, an equal volume of the siNA solution and the RNAiMax solution were added together for each of the siNAs.
(§4) This solution was incubated at room temperature for 20 minutes. After incubation, 20 uL of the solution was added to each of the relevant wells. The final concentration of siNA in each well was 10 nM and the final volume of RNAiMax in each well was 0.3 ul. […]
(§5) Briefly, a 60 uL (1 plate) or 110 uL (2 plates) of the Lysis Solution with DNase I was dispensed into each well of the Lysis Buffer Plate (twin.tec full skirt plate). The lysis buffer and stop plates were stored at 4° C. until the cells were washed.
(§6) The plate was spun at 1100 rpm for 5 minutes. The culture medium was aspirated and discarded from the wells of the culture plate. The lysis was performed automatically using a BioMek FX instrument and method. After the Biomek method was completed, the lysis plate was incubated for 2 min at room temperature. The lysis plate can be stored for 2 hours at 4° C., or at −20° C. or −80° C. for two months.
(§7) Each well of the reverse transcription plate required 10 uL of 2× reverse transcriptase Buffer, 1 uL of 20× reverse transcription enzyme and 2 uL of nuclease-free water. The reverse transcription master mix was prepared by mixing 2× reverse transcription buffer, 20× reverse transcription enzyme mix, and nuclease-free water. 13 uL of the reverse transcription master mix was dispensed into each well of the reverse transcription plate (semi-skirted). A separate reverse transcription plate was prepared for each cell plate. The plate was loaded onto a Biomek NX or Biomek FX Dual −96 and the Biomek method was run. The program is programmed to automatically added 7 uL of lysate from the cell lysis procedure described above into each well of the reverse transcription plate. The plate is sealed and spun on a centrifuge (1000 rpm for 30 seconds) to settle the contents to the bottom of the reverse transcription plate. The plate is placed in a thermocycler at 37° C. for 60 min, 95° C. for 5 min, and 4° C. until the plate is removed from the thermocycler. Upon removal, if not used immediately, the plate was frozen at −20° C.
(§8) A series of probes and primers were used to detect the various mRNA transcripts of the genes of Bach1, HMOX-1, and GAPDH in mouse and human cell lines. The assays were performed on an ABI 7900 instrument, according to the manufacturer's instructions. […] The PCR reactions were carried out at 50° C. for 2 min, 95° C. for 20 min followed by 40 cycles at 95° C. for 15 secs and 60° C. for 1 min
(§9) Within each experiment, the […] was set in the exponential phase of the amplification curve, and based on the intersection point of the baselines with the amplification curve, a Ct value was assigned by the instrument.
(§10) The expression level of the gene of interest and % knock-down was calculated using Comparative Ct method:
(§11) ΔCt=ΔCt(Target siRNA)−ΔCt(NTC)
(§12) Relative expression level=2^−ΔΔCt
(§13) The non-targeting control siNA was, unless otherwise indicated, chosen as the value against which to calculate the % knock-down, because it is the most relevant control.

Bach1 mRNA [2] = test: Initial screen: Bach1 mRNA knock-down in mouse NIH 3T3 cells (96-well transfection, quantitative RT-PCR); format: cell-based; details: mouse NIH3T3 cells, n = 2, 24 hrs post-transfection, protocol 10 nM siNA
Method: as §1, §2, §3, §4, §5, §6, §7, §8, §9, §10, §11, §12, §13

Substance	% KD (Bach1 mRNA [1])	% KD (Bach1 mRNA [2]) [%]
29948-DC: Bach1 siNA duplex, target site 1285; sense B GcGAGAAGuGGcAGAAcAc TTB (SEQ 45); antisense GUGuucuGccACuuCuCGcUU (SEQ 46) (sense GCGAGAAGUGGCAGAACACTT; antisense GUGUUCUGCCACUUCUCGCUU; sense: DNA at AGT, 2'-fluoro at CU, [invAb] at 5' end, 3' end, backbone not given here; antisense: sugars from the 5' end rrrffffmffmmffmfmmfmm, backbone not given here)	51.9 ± 3^ %	−16.3 ± 12.6
29949-DC: Bach1 siNA duplex, target site 664; sense B GuGuAAAcuccGcAGGuAu TTB (SEQ 47); antisense AUAccuGcGGAGuuuAcAcUU (SEQ 48) (sense GUGUAAACUCCGCAGGUAUTT; antisense AUACCUGCGGAGUUUACACUU; sense: DNA at AGT, 2'-fluoro at CU, [invAb] at 5' end, 3' end, backbone not given here; antisense: sugars from the 5' end rrrfffmfmmmmfffmfmfmm, backbone not given here)	25 ± 1.4%	−7.1 ± 5.2
29950-DC: Bach1 siNA duplex, target site 470; sense B GAGGAAuccuGcuuucAGu TTB (SEQ 49); antisense ACUGAAAGcAGGAuuccucUU (SEQ 50) (sense GAGGAAUCCUGCUUUCAGUTT; antisense ACUGAAAGCAGGAUUCCUCUU; sense: DNA at AGT, 2'-fluoro at CU, [invAb] at 5' end, 3' end, backbone not given here; antisense: sugars from the 5' end rrrmmmmmfmmmmffffffmm, backbone not given here)	90.6 ± 1.7%	42.5 ± 6.4
29951-DC: Bach1 siNA duplex, target site 1162; sense B GccuuuGucAGGuAcAGAc TTB (SEQ 51); antisense GUCuGuAccuGAcAAAGGcUU (SEQ 52) (sense GCCUUUGUCAGGUACAGACTT; antisense GUCUGUACCUGACAAAGGCUU; sense: DNA at AGT, 2'-fluoro at CU, [invAb] at 5' end, 3' end, backbone not given here; antisense: sugars from the 5' end rrrfmfmfffmmfmmmmmfmm, backbone not given here)	39 ± 11.2%	−22 ± 13.2
29952-DC: Bach1 siNA duplex, target site 732; sense B cAuAuGAGuccAuGuGcuu TTB (SEQ 53); antisense AAGcAcAuGGAcucAuAuGUU (SEQ 54) (sense CAUAUGAGUCCAUGUGCUUTT; antisense AAGCACAUGGACUCAUAUGUU; sense: DNA at AGT, 2'-fluoro at CU, [invAb] at 5' end, 3' end, backbone not given here; antisense: sugars from the 5' end rrrfmfmfmmmfffmfmfmmm, backbone not given here)	75 ± 0.9%	−15.7 ± 1.8
29953-DC: Bach1 siNA duplex, target site 1096; sense B cAcAuAuGAccAAuAuGGu TTB (SEQ 55); antisense ACCAuAuuGGucAuAuGuGUU (SEQ 56) (sense CACAUAUGACCAAUAUGGUTT; antisense ACCAUAUUGGUCAUAUGUGUU; sense: DNA at AGT, 2'-fluoro at CU, [invAb] at 5' end, 3' end, backbone not given here; antisense: sugars from the 5' end rrrmfmffmmffmfmfmfmmm, backbone not given here)	24 ± 14.1%	−11 ± 3.3
29954-DC: Bach1 siNA duplex, target site 1389; sense B cAGAAcAGAucucAcAGAA TTB (SEQ 57); antisense UCCuGuGAGAucuGuucuGUU (SEQ 58) (sense CAGAACAGAUCUCACAGAATT; antisense UCCUGUGAGAUCUGUUCUGUU; sense: DNA at AGT, 2'-fluoro at CU, [invAb] at 5' end, 3' end, backbone not given here; antisense: sugars from the 5' end rrrfmfmmmmfffmffffmmm, backbone not given here)	63.4 ± 0.9%	−10.2 ± 10.1
29955-DC: Bach1 siNA duplex, target site 737; sense B GAGuccAuGuGcuuAGAGA TTB (SEQ 59); antisense UCUcuAAGcAcAuGGAcucUU (SEQ 60) (sense GAGUCCAUGUGCUUAGAGATT; antisense UCUCUAAGCACAUGGACUCUU; sense: sugars from the 5' end rrrfffdfdfdfffddddddd, [invAb] at 5' end, 3' end, backbone not given here; antisense: sugars from the 5' end rrrffmmmfmfmfmmmfffmm, backbone not given here)	14.6 ± 0.2%	−12.2 ± 4.3
29958-DC: Bach1 siNA duplex, target site 851; sense B GucAAAGAcAuucAuGcuu TTB (SEQ 65); antisense AAGcAuGAAuGucuuuGAcUU (SEQ 66) (sense GUCAAAGACAUUCAUGCUUTT; antisense AAGCAUGAAUGUCUUUGACUU; sense: DNA at AGT, 2'-fluoro at CU, [invAb] at 5' end, 3' end, backbone not given here; antisense: sugars from the 5' end rrrfmfmmmfmfffffmmfmm, backbone not given here)	75.7 ± 8.6%	−50.4 ± 6.8
29959-DC: Bach1 siNA duplex, target site 1415; sense B GAGuGuccGuGGuuAGGuA TTB (SEQ 67); antisense UACcuAAccAcGGAcAcuCUU (SEQ 68) (sense GAGUGUCCGUGGUUAGGUATT; antisense UACCUAACCACGGACACUCUU; sense: DNA at AGT, 2'-fluoro at CU, [invAb] at 5' end, 3' end, backbone not given here; antisense: chemistry not given here; in key)	68 ± 14.9%	−9.9 ± 3.8
29960-DC: Bach1 siNA duplex, target site 1377; sense B ccAAAGAuGGcucAGAAcA TTB (SEQ 69); antisense UGUucuGAGccAucuuuGGUU (SEQ 70) (sense CCAAAGAUGGCUCAGAACATT; antisense UGUUCUGAGCCAUCUUUGGUU; sense: DNA at AGT, 2'-fluoro at CU, [invAb] at 5' end, 3' end, backbone not given here; antisense: sugars from the 5' end rrrfffmmmffmfffffmmmm, backbone not given here)	34 ± 3%	5.9 ± 6.4
29962-DC: Bach1 siNA duplex, target site 1240; sense B cAGGGAAGAuAGuAGuGuu TTB (SEQ 73); antisense AACAcuAcuAucuucccuGUU (SEQ 74) (sense CAGGGAAGAUAGUAGUGUUTT; antisense AACACUACUAUCUUCCCUGUU; sense: DNA at AGT, 2'-fluoro at CU, [invAb] at 5' end, 3' end, backbone not given here; antisense: sugars from the 5' end rrrmffmffmffffffffmmm, backbone not given here)	88 ± 0.7%	21.3 ± 2.2

— patent publication US20120016010A1, “RNA Interference Mediated Inhibition of BTB and CNC Homology 1, Basic Leucine Zipper Transcription Factor 1 (BACH1) Gene Expression Using Short Interfering Nucleic Acid (siNA)” (Merck Sharp & Dohme Corp, priority 2009, published 2012)
